Laboratory results taken from patent US11591569B2, “Methods for epicardial differentiation of human pluripotent stem cells” (Wisconsin Alumni Research Foundation, priority 2015, dated 2023).

Columns and labels:
Format in all cases: cell-based, human
[1] = system: hPSC-derived cardiac progenitors; assay: Epicardial (WT1+) differentiation of hPSC-derived cardiac progenitors, flow cytometry at day 12; settings: for cTnT+WT1+ cells: day 6 progenitors treated day 7 to day 9, day 12 flow cytometry; for WT1+ cell differentiation compared with 3 μM CHIR99021: 0.3 μM, day 7 to day 9, GiWiGi protocol, flow cytometry at day 12
Description: Epicardial Cell Generation Via Activation of Canonical Wnt Signaling: At day 6, cardiac progenitor cells were singularized with Accutase at 37° C. for 5 minutes and then seeded onto a gelatin-coated cell culture dish at 20,000-80,000 cells/cm^2 in LaSR basal medium (advanced DMEM/F12 with 100 μg/mL ascorbic acid) or RPMI/Vc/Ins medium (100 μg/mL ascorbic acid and 1 μg/mL human recombinant or bovine insulin (Sigma)) with 5 μM ROCK inhibitor Y-27632 for 24 hours. […] Data were collected on a FACSCaliber flow cytometer (Beckton Dickinson) and analyzed using FlowJo. FACS gating was based on the corresponding isotype antibody control. Pro-epicardium arises from ISL1+NKX2.5+ second heart field progenitors in vivo^1,41.

[2] = system: hPSC-derived epicardial cells; assay: EMT induction of hPSC-derived epicardial cells; settings: 10 ng/mL bFGF, 5 ng/mL TGFβ1; for Cell morphology after treatment: H13 hESC-derived epicardial cells, day 18; for Expression of WT1 and ZO1: immunostaining; for EMT (CDH1 decreased, CDH2 and SNAIL2 increased versus untreated controls): qPCR and E-cadherin immunostaining
Description: Single Cell Passage and EMT Induction: Confluent WT1+ cells were dissociated into single cells with Accutase at 37° C. for 5 minutes and then seeded onto a gelatin-coated cell culture dish at 10,000 cells/cm^2 in LaSR basal medium supplemented with 5 μM ROCK inhibitor Y-27632 for 24 hr. After 24 hours, medium was changed to LaSR basal medium and cells were treated with TGFβ1 or bFGF (R&D Systems) as indicated. Medium was changed every 3 days until analysis.
Immunostaining Analysis: Cells were fixed with 4% paraformaldehyde for 15 minutes at room temperature and then stained with primary and secondary antibodies (Table 1) in PBS plus 0.4% Triton X-100 and 5% non-fat dry milk (Bio-Rad). Nuclei were stained with Gold Anti-fade Reagent with DAPI (Invitrogen). An epifluorescence microscope (Leica DM IRB) with a QImaging® Retiga 4000R camera was used for imaging analysis.
(§1) RT-PCR and Quantitative RT-PCR: Total RNA was prepared with the RNeasy mini kit (QIAGEN) and treated with DNase (QIAGEN). 1 μg RNA was reverse transcribed into cDNA via Oligo (dT) with Superscript III Reverse Transcriptase (Invitrogen). Real-time quantitative PCR was done in triplicate with iQSYBR Green SuperMix (Bio-Rad). GAPDH was used as an endogenous housekeeping control.

[3] = system: hPSC-derived epicardial cells; assay: Long-term expansion of hPSC-derived epicardial cells
Description: Long-Term Maintenance of hPSC-Derived Epicardial Cells: To expand the epicardial cells, confluent cells on day 3 or 4 of differentiation were split 1:3 at a density of 0.04 to 0.08 million cells/cm^2 using Versene (Life Technologies) or Accutase and routinely passaged onto gelatin-coated plates in LaSR basal medium or RPMI/Vc/Ins medium and 0.5 μM A83-01 (Stemgent) or 2 μM SB431542 (Stemgent) with medium changed daily until the cells reached confluence. Overnight treatment of 5 μM Y27632 and 1% human recombinant albumin (Sigma-Aldrich) on single cells during passage was used to improve cell attachment and survival, but they were not required once cells attached.
Flow Cytometry Analysis: Cells were dissociated into single cells with Accutase for 10 minutes and then fixed with 1% paraformaldehyde for 20 minutes at room temperature and stained with primary and secondary antibodies (Table 1) in PBS plus 0.1% Triton X-100 and 0.5% BSA. Data were collected on a FACSCaliber flow cytometer (Beckton Dickinson) and analyzed using FlowJo. FACS gating was based on the corresponding isotype antibody control.

hPSCs = assay: Cardiac progenitor induction from hPSCs, gene expression by quantitative RT-PCR; settings: 6 μM CHIR99021 at day 0 in RPMI medium, H13 hESCs
Description: Cardiac Progenitor Induction Via Modulation of Canonical Wnt Signaling: When hPSCs maintained on a SyntheMax-coated surface achieved confluence, cells were singularized with Accutase (Innovative Cell Technologies) at 37° C. for 5 minutes and then seeded onto a SyntheMax-coated cell culture dish at 250,000 cells/cm^2 in mTeSR1 or E8 supplemented with 5 μM ROCK inhibitor Y-27632 (Selleckchem) (day −3) for 24 hours. Cells were then cultured in mTeSR1 or E8, changed daily. At day 0, cells were treated with 6 μM CHIR99021 (Selleckchem) for 24 hours in RPMI medium, followed by a change with RPMI medium at day 1. 2.5-5 μM IWP2 (Tocris) was added at day 3 and removed during the medium change at day 5.
as §1

[4] = day 6 ISL1+NKX2.5+ progenitors treated 48 hours (day 7 to day 9), H13 hESC-derived day 12 cultures, concentrations per Table 3

Molecule: CC1=C(/C=C/C(C)=C/C=C/C(C)=C/C(=O)O)C(C)(C)CCC1 [retinoic acid]
- WT1+ cells [1, 4]: about 10%
- cTnT+WT1+ cells [1]: 2%

Molecule: c1cc(-c2cnn3cc(-c4ccc(OCCN5CCCCC5)cc4)cnc23)ccn1 [dorsomorphin]
- WT1+ cells [1, 4]: about 10%
- cTnT+WT1+ cells [1]: 2%

Molecule: TGFβ: TGFβ pathway protein modulator (R&D Systems)
- Cell morphology after treatment [2]: fusiform-shaped appearance
- Expression of WT1 and ZO1 [2]: significantly decreased
- EMT (CDH1 decreased, CDH2 and SNAIL2 increased versus untreated controls) [2]: induced EMT

Molecule: BIO-acetoxime
- WT1+ cell differentiation compared with 3 μM CHIR99021 [1]: induced WT1+ cell differentiation to a similar extent as 3 μM CHIR99021

Molecule: bFGF: FGF pathway protein modulator (R&D Systems)
- Cell morphology after treatment [2]: fibroid spindle
- Expression of WT1 and ZO1 [2]: significantly decreased
- EMT (CDH1 decreased, CDH2 and SNAIL2 increased versus untreated controls) [2]: induced EMT

Molecule: CHIR98014
- WT1+ cell differentiation compared with 3 μM CHIR99021 [1]: induced WT1+ cell differentiation to a similar extent as 3 μM CHIR99021

Molecule: Cc1cccc(-c2nn(C(=S)Nc3ccccc3)cc2-c2ccnc3ccccc23)n1 [A83-01]
- Expandability of epicardial cells from additional hPSC lines ([3]; 19-9-11 iPSC-derived epicardial cells, 0.5 μM A83-01): expandable
- Expansion with retention of epithelial morphology and WT1 expression ([3]; H13 hESC-derived day 18 epicardial cells, treated 3 days, 0.5 μM): enabled expansion of hPSC-derived epicardial cells that retained polarized epithelial morphology and WT1 expression

Molecule: Cc1c[nH]c(-c2cnc(NCCNc3ccc(C#N)cn3)nc2-c2ccc(Cl)cc2Cl)n1 [CHIR99021]
- WT1+ cells ([1]; 3 μM CHIR, initial density 0.06 million cells per cm^2, LaSR basal medium, day 12): more than 95%
- WT1+ cells [1, 4]: more than 85%
- Gene expression changes in the first 24 hr after addition (hPSCs): down-regulation of the pluripotency markers OCT4 and NANOG, and induction of the primitive streak like gene T

B1: Bone Morphogenetic Protein 4 (protein, UniProt P12644 293-408, looked up)
Bone morphogenetic protein 4: SPKHHSQRARKKNKNCRRHSLYVDFSDVGWNDWIVAPPGYQAFYCHGDCPFPLADHLNSTNHAIVQTLVNSVNSSIPKACCVPTELSAISMLYLDEYDKVVLKNYQEMVVEGCGCR
notes: TGFβ superfamily growth factor
- Cell population obtained in the presence of CHIR ([1]; co-treatment with CHIR (2 μM CHIR99021, FIG. 10), day 7 to day 9, day 12 flow cytometry of cTnT and WT1): yielded an unknown population at the expense of WT1+ cells
- WT1+ cells [1, 4]: about 10%
- cTnT+WT1+ cells [1]: 2%
